Source: PubChem BioAssay (NCI)
Where “and” joins values, the source holds several entries; their conditions need not be identical. Equal entries are not always repeated.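 All cell lines were grown in 96-well plates and treated with compound for 48 hours. GI50: concentration for 50% inhibition of growth. Definition used: TGI = concentration required for complete inhibition of growth.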

Key:
Assay in all cases: DTP human tumour cell line panel, 48 h
CCRF-CEM leukemia = system: CCRF-CEM leukemia
HOP-62 NSCLC = system: HOP-62 NSCLC
KM12 colon = system: KM12 colon
MCF7 breast = system: MCF7 breast
MDA-MB-231 breast = system: MDA-MB-231 breast
NCI-H23 lung = system: NCI-H23 lung
OVCAR-3 ovarian = system: OVCAR-3 ovarian
PC-3 prostate = system: PC-3 prostate
SNB-19 CNS = system: SNB-19 CNS
TK-10 renal = system: TK-10 renal

Structure (SMILES)	GI50 (CCRF-CEM leukemia)	TGI (CCRF-CEM leukemia)	GI50 (HOP-62 NSCLC)	TGI (HOP-62 NSCLC)	GI50 (KM12 colon)	TGI (KM12 colon)	GI50 (MCF7 breast)	TGI (MCF7 breast)	GI50 (MDA-MB-231 breast)	TGI (MDA-MB-231 breast)	GI50 (NCI-H23 lung)	TGI (NCI-H23 lung)	GI50 (OVCAR-3 ovarian)	TGI (OVCAR-3 ovarian)	GI50 (PC-3 prostate)	TGI (PC-3 prostate)	GI50 (SNB-19 CNS)	TGI (SNB-19 CNS)	GI50 (TK-10 renal)	TGI (TK-10 renal)
Nc1nccc2c1ccn2-c1ccc(NC(=O)c2ccc(N3CCOCC3)c(C(F)(F)F)c2)cc1	0.452 µM	> 100 µM	0.342 µM	1.73 µM	0.557 µM	8.5 µM	0.316 µM	1.41 µM	0.346 µM	1.47 µM	0.94 µM	17.3 µM	1.38 µM	15.7 µM	0.499 µM	17.4 µM	0.61 µM	8.13 µM	1.52 µM	9.75 µM
Ic1ccc(-n2nnnc2-c2cnoc2-c2ccccc2)cc1	1.21 µM	> 48.8 µM	53.3 µM	> 100 µM	47.1 µM	> 89.6 µM	35.2 µM	> 100 µM	> 51.9 µM	> 91.2 µM	35.4 µM	> 81 µM	46.4 µM	> 100 µM	> 34.4 µM	> 71.4 µM	> 63.1 µM	> 100 µM	41.5 µM	> 82.3 µM
Cc1cn2c(/C=C3\C(=O)Nc4ccc(O)cc43)c(-c3ccc(Cl)cc3)nc2s1	29.4 µM	> 100 µM	15.3 µM	30.3 µM	45.4 µM	> 100 µM	14.2 µM	33.8 µM	14.5 µM	54.2 µM	15.8 µM	35.8 µM	16.9 µM	38.3 µM	22.2 µM	> 100 µM	15.2 µM	39.1 µM	18.7 µM	52.2 µM
Cc1nc2cnc(N)c(C#Cc3cncc(C(=O)Nc4ccc(CN5CCN(C)CC5)c(C(F)(F)F)c4)c3)c2nc1C	2.12 µM	16.7 µM	0.738 µM	10.2 µM		1.44 µM	0.161 µM	4.04 µM	0.209 µM	2.13 µM	0.342 µM	8.67 µM	0.824 µM	9.66 µM	1.48 µM	17.4 µM	4.36 µM	16.9 µM	0.496 µM	3.2 µM
COc1cccc2c1C(=O)c1c(O)c3c(c(O)c1C2=O)CC(O)(/C(C)=N/NC(=O)CCC(=O)N/N=C(\C)C1(O)Cc2c(O)c4c(c(O)c2C(OC2CC(N)C(O)C(C)O2)C1)C(=O)c1c(OC)cccc1C4=O)CC3OC1CC(N)C(O)C(C)O1 (stereo unspecified)	0.113 µM	7.17 µM	0.19 µM	1.57 µM	0.755 µM	> 14.5 µM	0.0676 µM	7.41 µM	1.17 µM	> 50 µM	0.186 µM	1.43 µM	0.259 µM	2.66 µM	0.958 µM	> 21.2 µM	0.198 µM	1.38 µM	0.574 µM	6.69 µM
COc1cc(CNCCCN2C(=O)c3ccc4c5c(ccc(c35)C2=O)C(=O)N(CCCNCc2cc(OC)c(OC)c(OC)c2)C4=O)cc(OC)c1OC	0.3 µM	4.07 µM	0.477 µM	1.32 µM	0.238 µM	0.834 µM	0.242 µM	0.643 µM	0.252 µM	2.27 µM	0.35 µM	1.22 µM	0.143 µM	0.382 µM	0.387 µM	1.57 µM	0.398 µM	1.25 µM	0.416 µM	1.32 µM
C1CSCCSCCS1		> 100 µM		> 100 µM		> 100 µM		> 100 µM		> 100 µM		> 100 µM		> 100 µM		> 100 µM		> 100 µM		> 100 µM
COc1cc(C2c3cc4c(cc3C(O)C(CO)C2CO)OCO4)cc(OC)c1OC (stereo unspecified)	0.787 µM	> 100 µM	1.47 µM	> 100 µM	0.494 µM	> 47 µM	0.355 µM	> 100 µM	3.69 µM	> 100 µM	4.21 µM	> 100 µM	0.372 µM	1.94 µM	0.596 µM	> 100 µM	2.6 µM	> 100 µM	> 23.2 µM	> 100 µM
O=C(c1c(F)ccc(NS(=O)(=O)N2CC[C@@H](F)C2)c1F)c1c[nH]c2ncc(-c3cnc(C4CC4)nc3)cc12	6.52 µM and 7.64 µM	> 100 µM	6.24 µM and 7.01 µM	> 10 µM and 58.6 µM	8.25 µM and 9.66 µM	> 10 µM and 33.6 µM	> 9.13 µM and 10.1 µM	> 10 µM and 44.5 µM	2.88 µM and 3.47 µM	> 10 µM and 46.8 µM	> 10 µM and 10.2 µM	> 10 µM and 41.1 µM	> 8.35 µM and 6.04 µM	> 10 µM and 57.4 µM	7.03 µM and 6.82 µM	> 10 µM and 70 µM	> 10 µM and 9.77 µM	> 85.4 µM	3.53 µM and 8.03 µM	> 66.9 µM
CCN1CCN=c2c3cc(OC)ccc3n3cnc4ccc1c2c43		0.747 µM		0.924 µM		1.21 µM		0.993 µM		0.814 µM		0.985 µM		0.525 µM		0.8 µM		1.95 µM		6.66 µM
O=C1NC(=S)NNC12c1ccccc1-c1ccccc12		> 10 µM		> 10 µM		> 10 µM		> 10 µM		> 10 µM		> 10 µM								> 10 µM
CCN(CC)c1nc(-c2ccc(Cl)cc2Cl)nc2ccccc12	10.4 µM	> 100 µM	17.3 µM	35.6 µM	20.2 µM	59.8 µM	22.2 µM	> 68 µM	4.2 µM	23.2 µM	22.8 µM	62.8 µM	15.7 µM	47.2 µM	24.1 µM	> 63.3 µM	40.8 µM	> 100 µM	23.8 µM	63.3 µM
